Patent US8680147B2, “Compositions” (DSM IP Assets B.V., priority 2006, dated 2014)

Tests used:
Assay type in all cases: cell-based
[1] = tested on: psoriasin (S100 calcium-binding protein A7); assay: Gene expression in cytokine-stimulated keratinocytes, quantitative real time PCR; conditions: for Psoriasin gene expression (in % of stimulated cells): keratinocytes, cytokine mix 24 hrs
Experimental: (§1) Keratinocytes were cultured in standard medium (SFM, invitrogen #1 7005075) until they reached confluence. Culture medium was then changed to assay medium (SFM without epidermal growth factor and pituary extract) and pre-incubated with the test compound for 2 hrs. In order to stimulate the cells, a cytokine mix (see Boniface et al. J. Immunol. 178, 4615-4622, 2007) was added and the cells were cultured for 24 hrs. At the end of the experiment, cells were washed; total RNA was extracted using Trizol reagents (Sigma T9424). The expression levels of specific genes (cytokeratin 10, β-defensin (defensin-β4) and psoriasin (or S100 calcium-binding protein A7) was performed by quantitative real time PCR, using the procedure described in other examples.

β-defensin (defensin-β4) = assay: as above; conditions: for β-defensin gene expression (in % of stimulated cells): keratinocytes, cytokine mix 24 hrs
Experimental: as §1

Human MMP-3 = assay: Gene expression in human chondrocyte cells (SW1353), quantitative real-time PCR
Experimental: (§2) The cells were treated with IL-1β, which is one of the natural mediators that induce cartilage breakdown and is detected in substantial amounts in osteoarthritic cartilage tissues and cells derived thereof. Treatment of cells with IL-1β triggers the expression of genes that are involved in catabolic events, such as MMPs. Also, treatment of the cells with IL-1β reduces the collagen expression levels (compared to untreated cells)
(§3) Chondrocytes (SW1353; purchased from the […] [ATCC]) were grown in cell culture medium according to the instructions from ATCC. For experimental treatments, cells were seeded into 6-well plates and cultured for two days until they reached confluence. Total cellular RNA was extracted from cultured cells and reverse-transcribed as described by Richard et al. Mol. Nutr. Food Res. 49, 431-442, 2005. Expression levels of distinct genes were determined by quantitative real-time PCR as described in Richard et al. Mol. Nutr. Food Res. 49, 431-442, 2005.

Human collagen II = assay: as above
Experimental: as §2, §3

human collagen 1 = assay: as above
Experimental: as §2, §3

Human MMP-13 = assay: as above
Experimental: as §2, §3

Aggrecan = assay: as above
Experimental: as §2, §3

Human MMP-1 = assay: as above
Experimental: as §2, §3

[2] = cytokine-stimulated keratinocytes

COc1c(C(C)C)cc2c(c1O)[C@@]1(C(=O)O)CCCC(C)(C)[C@@H]1CC2 [Carnosic acid-12-methyl ether (I), (4aR,10aS)-carnosic acid 12-methyl ether]
Psoriasin gene expression (in % of stimulated cells) ([1]; 0.1 μmol/L): 46 % of stimulated cells | Psoriasin gene expression (in % of stimulated cells) ([1]; 1.0 μmol/L): 58 % of stimulated cells | Psoriasin gene expression (in % of stimulated cells) ([1]; 5.0 μmol/L): 62 % of stimulated cells | Effect on psoriasin expression (in words) [1, 2]: dose-dependently reduced the expression | β-defensin gene expression (in % of stimulated cells) (β-defensin (defensin-β4); 0.1 μmol/L): 49 % of stimulated cells | β-defensin gene expression (in % of stimulated cells) (β-defensin (defensin-β4); 1.0 μmol/L): 47 % of stimulated cells | β-defensin gene expression (in % of stimulated cells) (β-defensin (defensin-β4); 5.0 μmol/L): 28 % of stimulated cells | Effect on β-defensin expression (in words) (β-defensin (defensin-β4); [2]): dose-dependently reduced the expression | Effect on expression of MMP-3 (in words) (Human MMP-3): drastically reduced the expression | Effect on expression of human collagen 11 (in words) (Human collagen II): stimulated the expression | Effect on expression of human collagen 1 (in words) (human collagen 1): stimulated the expression | Effect on expression of MMP-13 (in words) (Human MMP-13): drastically reduced the expression | Effect on expression of aggrecan (in words) (Aggrecan): stimulated the expression | Effect on expression of MMP-1 (in words) (Human MMP-1): drastically reduced the expression
